Patent US12186330B2, “Compositions for improving cell viability and methods of use thereof” (Amylyx Pharmaceuticals Inc., priority 2013, dated 2025)
Several values for one entry are separate records, joined by “and”; a condition that tells them apart may be missing. Equal entries are not always repeated.

Experiments:
[1] = tested on: rat cortical neuron culture; assay: Cell death by LDH release after hydrogen peroxide exposure, peroxide exposure neuronal cell model; type: cell-based; conditions: for Cell Death Evaluated By LDH Following H2O2 Exposure, Average (%): compounds added 24 h before and for 24 h after, TUDCA 100 uM, 4-PBA 1 mM, DFX 100 uM, n=6, No Treatment = 0%; for protection against cell death after peroxide exposure (FIG. 2, significance): LDH, H2O2 exposure, rat cortical neuron culture
Experimental: (§1) Cortical mixed cultures were prepared from E18 Wistar rat embryos (Laboratory Animal Center, Kuopio, Finland). The cortices were dissected out and the tissue was cut to small pieces. The cells were separated by 15-min incubation with DNase and papain. The cells were collected by centrifugation (1500 rpm, 5 min). The tissue was triturated with a pipette and the cells were plated (3×10^5 cells/cm^2) on poly-L-lysine coated 48 wells in MEM supplemented with 2 g/l glucose, 2 mM glutamine, 0.1 μg/ml gentamicin, and 10% heat-inactivated horse serum (HS-HI) and […] bovine serum (FBS-HI). After three days in vitro, medium containing MEM with supplements and 5% both sera was changed to the cells. On day 6 in vitro, the unwanted cell division was inhibited by adding cytosine arabinoside (10 μM final concentration) for 24 h. The cultures were refed with MEM with supplements and 5% HS-HI before experiments.
(§2) The wells in good shape were chosen for experiment on day 10 in vitro. Test compounds were diluted in MEM with supplements and 5% HS-HI. 24 h later, 300 μM NMDA for 24 h was used as a control for total neuronal death, and H2O2 for 1 h was used to induce approximately 30-60% cell death. DFX (100 μM) was used as a potential positive control for inhibition of H2O2-induced cell death. Wells treated with medium only served as 0-control. Test compounds were pipetted to the cells 24 h before adding H2O2. After 60 min, the medium was removed and media containing the compounds was pipetted to the wells for 24 h.
After 24 h the culture media of all wells was collected and possible cell debris was removed by centrifugation (13 000 rpm, 3 min). A-100-μl aliquot was pipetted into a micro titer plate as duplicates, and equal amount of LDH reagent was pipetted to the wells. The absorbance at 340 nm was measured immediately using a 3-min kinetic measurement protocol in Multiskan Ascent ELISA reader (Thermo, Finland). The change in absorbance/min was determined, which is directly proportional to the released LDH (=cell death).
(§3) The number of wells per compound concentration used was 6 (n=6). One (1) concentration of 100 μM TUDCA and 1 mM 4-PBA separately and together were studied. Statistical analysis were calculated on Microsoft excel. The values were analyzed two-tailed, equal variance t-tests comparing all conditions to all other conditions.

[2] = tested on: rat cortical neuron culture; assay: Cell viability by PrestoBlue after hydrogen peroxide exposure, peroxide exposure neuronal cell model; type: cell-based; conditions: for protection of cell viability against peroxide exposure (FIG. 1, significance): PrestoBlue, H2O2 exposure, rat cortical neuron culture
Experimental: as §1, §2
After the cell culture medium was collected for LDH measurement, 100 μl PrestoBlue solution (1:10 dilution of PrestoBlue reagent (Invitrogen, # A13261, lot 915815C) in culture medium) was added to the wells for 1 h incubation at +37° C. CO2 incubator. Fluorescence at 560 nm excitation/615 nm emission was measured using Victor fluororeader (PerkinElmer).
as §3

[3] = H2O2 40 uM for 1 h, compounds added 24 h before and for 24 h after, TUDCA 100 uM, 4-PBA 1 mM, DFX 100 uM, n=6, No Treatment = 100%
[4] = Rattus norvegicus, Cortical neurone, H2O2 40 uM for 1 h, compounds added 24 h before and for 24 h after, TUDCA 100 uM, 4-PBA 1 mM, DFX 100 uM, n=6, No Treatment = 100%, read-out: Cell Viability Evaluated By PrestoBlue Following H2O2 Exposure, Average (%)

Question: With `O=C(O)CCCc1ccccc1` [4-PBA, 4-phenylbutyric acid] as the compound, how does the “Cell Death Evaluated By LDH Following H2O2 Exposure, Average (%)” value ([1]; H2O2 40 uM for 1 h) read?
Answer: 46.5% and 46.47%

Question: And the “protection against cell death after peroxide exposure (FIG. 2, significance)” value [1]?
Answer: does not provide significant protection

Question: What about the “Cell Viability Evaluated By PrestoBlue Following H2O2 Exposure, Average (%)” value [2, 3] of the same compound?
Answer: 72.20%

Question: And the “protection of cell viability against peroxide exposure (FIG. 1, significance)” value [2]?
Answer: does not provide significant protection

Question: And the viability at 1000 µM [2, 4]?
Answer: 72%

Question: Which results are given for `OO` [H2O2, hydrogen peroxide]?
Answer: Cell Death Evaluated By LDH, Average (%), H2O2 exposure alone ([1]; H2O2 40 uM for 1 h, no test compound (the text's 'control')): 62.48%; viability at 40 µM ([2]; Rattus norvegicus, Cortical neurone, 1 h, H2O2 40 uM for 1 h, no test compound (the text's 'control'), read-out: Cell Viability Evaluated By PrestoBlue, Average (%), H2O2 exposure alone): 48.6%

Question: For `CN[C@H](CC(=O)O)C(=O)O` [NMDA], which “Cell Death Evaluated By LDH, Average (%), NMDA negative control” value ([1]; NMDA 300 uM for 24 h, control for total neuronal death) is on record?
Answer: 100%

Question: With `C[C@H](CCC(=O)NCCS(=O)(=O)O)[C@H]1CC[C@H]2[C@@H]3[C@@H](O)C[C@@H]4C[C@H](O)CC[C@]4(C)[C@H]3CC[C@]12C` [TUDCA, tauroursodeoxycholic acid] as the compound, how does the “Cell Death Evaluated By LDH Following H2O2 Exposure, Average (%)” value ([1]; H2O2 40 uM for 1 h) read?
Answer: 60.4% and 60.37%

Question: And the “protection against cell death after peroxide exposure (FIG. 2, significance)” value [1]?
Answer: does not provide significant protection

Question: What about the “Cell Viability Evaluated By PrestoBlue Following H2O2 Exposure, Average (%)” value [2, 3] of the same compound?
Answer: 58.59%

Question: What about the “protection of cell viability against peroxide exposure (FIG. 1, significance)” value [2] of the same compound?
Answer: does not provide significant protection

Question: What about the viability at 100 µM [2, 4] of the same compound?
Answer: 59%
